Laboratory results taken from publication PMC3551756, “HIV-1 Fusion Is Blocked through Binding of GB Virus C E2D Peptides to the HIV-1 gp41 Disulfide Loop” (PLoS ONE, 2013).

Columns and labels:
[1] = molecular target: recombinant HIV-1 gp41MN (truncated gp41 ectodomain) (HIV-1 (strain MN)); experiment: ELISA; competitive: gp41MN immobilised; E2_(340)-Fc at constant 5 µg/ml with increasing amounts of peptide; bound E2_(340)-Fc detected with anti-human IgG peroxidase antibody
[2] = system: HIV-1 NL4-3 / TZM-bl cells; experiment: HIV-1 virion-based (BlaM-Vpr) virus-cell fusion assay; conditions: standard (pre-CD4 binding) and TAS (post-CD4 binding, 23°C 1 h then 37°C 2 hr); E2 peptides 20 µM, AMD-3100 10 µM, 2F5 0.5 µg/ml, b12 and B4 0.3 µg/ml; five independent experiments each in triplicate
Experimental: HIV-1 virions containing the BlaM-Vpr chimera were produced as previously described [33]. Briefly, 293T cells were co-transfected with pNL4-3 proviral DNA, pCMV-BlaM-Vpr, and pAdVAntage vectors. After 2 days of cultivation, the virus-containing supernatant was centrifuged for 10 min at 300×g to remove cellular debris. The HIV-1 virion-containing supernatant was overlaid onto a 20% sucrose cushion and ultracentrifuged at 35000×g at 4°C for 90 min. The resulting pellet was resuspended in medium and aliquots were frozen at −80°C until usage.
The virion-based fusion assay was performed essentially as described elsewhere [41]. Briefly, 5×10^4 TZM-bl cells were infected with sucrose-purified HIV-1 NL4-3 virions containing BlaM-Vpr (5 ng p24-Gag per approach). Under temperature-arrested state (TAS) conditions, binding of the HI virions to target cells was allowed at low temperature via spinning inoculation, for which virions were added to cells and centrifuged at 2095×g, 4°C for 30 min. […] BlaM activity was quantified using a fluorescence plate reader. The extent of virus-cell fusion was determined from the ratio of blue (460 nm) and green (510 nm) emission upon exciting the cells at 405 nm.
To find out whether early or late steps of HIV-1 entry are affected by the E2 peptides, the E2 peptide activity was determined before and after gp120/CD4 engagement using the Vpr-β-lactamase (Vpr-BlaM) enzyme-based virus-cell fusion assay under standard (pre-CD4 binding) and temperature-arrested state (TAS; post-CD4 binding) conditions, respectively.
The HIV-inhibitory activity of known HIV-1 entry inhibitors or respective E2 peptides was determined using a virus-cell fusion assay under standard (respective inhibitors were added simultaneously to HIV NL4-3BlaM-Vpr inoculum: pre-CD4 binding) or under TAS (temperature-arrested state) conditions (respective inhibitors were added at low temperature of 23°C for 1 h after spin-inoculation [4°C] and removal of unbound HIV-1 particles: post-CD4 binding). […] Percentages were calculated in relation to mock-treated cells. […]

[3] = system: gp120/CCR5 interaction; assay type: binding, HIV-1; conditions: 293T cells expressing CCR5; sCD4 added; peptides 0.2 mM, E2_340-Fc 0.6 µM; 1 h 37°C; normalized to Hsp90
Experimental: Briefly, 293T cells were transiently transfected with either pCD4 or pCCR5 expression plasmids. Verification of expression was performed 2 days after transfection via flow cytometry. After 2 days of cultivation, the cells were resuspended in binding buffer (50 mM HEPES, 5 mM MgCl2, 1 mM CaCl2, 5% BSA, 0.1 mM NaN3, pH 7.5). […] After incubation for 1 h at 37°C, cells were washed with cold PBS and lysed in Triton X-100 and Tween-20 containing buffer. Lysates were separated by a 5% SDS-PAGE and verified with monoclonal gp120 antibody F425 B4a1 (NIH AIDS Research and Reference Reagent Program) or with sheep α-HIV-1-gp120 (Aalto Bio Reagents Ltd.) in Western Blot analyses. HIV-1 gp120 (5 ng) was used as a standard.
In a related approach, the effect of E2 peptides or intact E2 protein on the interaction between gp120 and the coreceptors CCR5 and CXCR4 expressed on cells was tested by immunoblotting. To ensure efficient binding of gp120 to the coreceptors, soluble CD4 (sCD4) was added simultaneously.
Soluble HIV-1 gp120 was added to the CD4-, CCR5-, or CXCR4-expressing cells and binding was investigated by separating the cell lysates on SDS-PAGE and visualized by performing Western Blot analyses.

[4] = system: CXCR4; experiment: CXCR4 surface expression, flow cytometry; assay type: cell-based, human; conditions: PBMC and TZM-bl cells; E2 peptides 25 µM, SDF-1α 1 µg/ml; 6 hr; FACS; RTCN vs mock; average of two independent experiments each in triplicate
Experimental: (§1) PHA/IL-2-stimulated PBMC or TZM-bl cells were incubated with E2 peptides (25 µM), phorbol 12-myristate 13-acetate (PMA; 40 ng/ml), SDF-1α (1 µg/ml) or RANTES (50 nM) for 6 hr. CD4, CXCR4 and CCR5 surface expression was analyzed by using standard FACS staining protocols. Cells were washed with PBS and incubated for 30 min at 4°C with PE-labeled antibodies (CD4 clone SK3, CXCR4 clone 12G5, and CCR5 clone 2D7, BD Biosciences, Germany). Subsequently, washed cells were resuspended in PBS and analyzed with a FACSCalibur™ flow cytometer (BD Biosciences, Germany).
(§2) The non-HIV-1-inhibitory peptide P28 derived from the C-terminal part of E2 (residue 271 to 290), served as a negative control.
(§3) CD4, CXCR4 and CCR5 expression on PBMC (A) and TZM-bl cells (B) after preincubation with E2 peptides were determined by flow cytometry analysis. […] Percentages illustrate the ratio-to-cell-negative (RTCN) values that were calculated from the percentage of positive cells and the fluorescence intensity of peptide-incubated cells compared to mock-incubated cells. Columns show average values ±SD of two independent experiments each performed in triplicate. *: p<0.05; **: p<0.01 (mock- vs. inhibitor-incubated cells).

[5] = system: CD4; experiment: CD4 surface expression, flow cytometry; assay type: cell-based, human; conditions: PBMC and TZM-bl cells; E2 peptides 25 µM, PMA 40 ng/ml; 6 hr; FACS; RTCN vs mock; average of two independent experiments each in triplicate
Experimental: as §1, §2, §3

[6] = system: HIV-1; conditions: ref [33]; cited from earlier work
[7] = molecular target: E2_340-Fc / HIV-1 gp41MN interaction (Human immunodeficiency virus type 1 group M subtype B, UniProt P05877); assay type: binding; conditions: ELISA, immobilized gp41MN, E2_340-Fc constant (5 µg/ml), increasing peptide; three independent experiments each in duplicate
Experimental: Flat-bottom, 96-well Microtest ELISA plates (Sarstedt, Germany) were coated overnight at 4°C with recombinant HIV-1 gp120 (0.5 µg/ml), gp41 (0.22 µg/ml) proteins, or with streptavidin (4 µg/ml) in coating buffer (0.1 M NaHCO3, 0.1 M Na2CO3, pH 9.87). Nonspecific binding was blocked (blocking buffer: 1% BSA, 0.1% Tween-20 in phosphate buffer, pH 7.2) for 1 h at room temperature, followed by washing steps (wash buffer: 0.1% Tween in phosphate buffer, pH 7.2). […] All plates were then incubated with recombinant E2_340-Fc or Fc protein in serial dilutions in sample buffer (phosphate buffer, pH 7.2) for 3 hr at room temperature. To perform the competitive ELISAs, the recombinant E2_340-Fc protein was adjusted at 5 µg/ml and the monoclonal gp41 antibodies (246-D, F240, T32, D50, 2F5, 4E10, Chessie 8 [all: NIH AIDS Research and Reference Reagent Program], and 5F3 [Polymun, Austria]) at 100 µM. After washing procedure, the plates were incubated for 1 h with polyclonal rabbit anti-human IgG peroxidase antibody (Dako, Germany) 1∶6000 in sample buffer and washed. Plates were developed with TMB peroxidase substrate solution (KPL, USA), or with OPD/H2O2 solution in the dark. Absorbances (ODs) were read at 450 or 492 nm, respectively, using a multi-channel photometer (ELISA-Reader AxSYM, Abbott Laboratory, USA).
Competitive binding of E2 and gp120 peptides (N35, N35s) with recombinant E2_340-Fc protein to immobilized recombinant gp41MN. Simultaneously to E2_340-Fc incubation peptides of E2 or gp120 were added with increasing amounts.

[8] = system: CCR5; experiment: CCR5 surface expression, flow cytometry; assay type: cell-based, human; conditions: PBMC and TZM-bl cells; E2 peptides 25 µM, RANTES 50 nM; 6 hr; FACS; RTCN vs mock; average of two independent experiments each in triplicate
Experimental: as §1, §2, §3

[9] = system: HIV-1 Env (NL4-3 gp160, X4env) on 293T cells; experiment: HIV-1 gp160 (X4env) binding of FITC-labeled E2 peptides, flow cytometry; conditions: FITC-labeled peptides 1 µM, sCD4 pretreated, 1 h 37°C, X4env- vs vector-transfected 293T cells; three independent experiments each in duplicate
Experimental: 293T cells were transiently transfected with an HIV-1 Env expression vector, coding for the CXCR4-tropic NL4-3 gp160 precursor (X4env) for surface expression of gp120-gp41 Env trimers or empty plasmid as control. After 2 days of cultivation, cells were incubated with 1 µg sCD4 and 1 µM FITC-conjugated E2 peptides for 1 h at 37°C respectively. Subsequently, cells were washed, resuspended in PBS, and analyzed by flow cytometry using a BD™ LSR II flow cytometer (Becton Dickinson Biosciences, Germany). Flow cytometer data were collected with BD FACSDiva™ and analyzed with FCS Express V3. In parallel, gp160 expression was determined by staining with HIV-1 gp120 mAbs (2G12 and 17b) and an anti-human IgG-FITC pAb (Dako, Germany).
Previously, we have shown that the target of the HIV-1-inhibitory E2 peptides is most likely located on the HIV-1 particle, rather than on the cell. The surface of the HIV-1 particle consists of a lipid bilayer with incorporated host cell proteins and a limited number of functional envelope (Env) trimers (on average 14±7). Therefore, we tested whether the HIV-1-inhibitory E2 peptides interact with trimeric HIV-1 Env proteins expressed on the surface of transfected cells. For this purpose, 293T cells were transiently transfected with an HIV-1 Env expression vector, coding for the gp160 precursor of the CXCR4-tropic NL4-3 envelope (X4env). Binding of FITC-labeled E2 peptides was monitored by flow cytometry.
Figure 4 Recombinant E2_340-Fc protein and E2-derived peptides bind HIV-1 gp41. (A) 293T cells expressing NL4-3 envelope (X4env) or empty plasmid as control were incubated with sCD4 and FITC-conjugated E2 peptides, respectively. Peptide binding was analyzed by flow cytometry. Percentages illustrate the increase of cell binding to X4env-transfected cells. The increase is normalized to the background binding of E2 peptides to mock-transfected cells by calculating the RTCN value. […] (C) E2 peptides with increasing amounts were added to recombinant E2_340-Fc protein (at constant concentration) and then transferred to immobilized recombinant gp41MN.

N35, HIV-1 gp120 N-terminus peptide (gp120 residue 31 to 65) (from UniProt P04578 31-65)
IC50 [1]: 0.7 µM

c1cc(CN2CCCNCCNCCCNCC2)ccc1CN1CCCNCCNCCCNCC1 [AMD-3100, reference compound]
inhibition of virus-cell fusion, standard versus TAS conditions [2]: act after CD4 engagement

Cc1ccc(-c2ccc3c(c2)C=C(C(=O)Nc2ccc(C[N+](C)(C)C4CCOCC4)cc2)CCC3)cc1.[Cl-] [TAK-779]
interference with gp120 binding to CCR5 [3]: clear reduction in the gp120/CCR5

Maraviroc
interference with gp120 binding to CCR5 [3]: clear reduction in the gp120/CCR5

GBV-C E2 peptide P6-2 (amino acids 45 to 64)
IC50 [1]: 7 µM

SDF-1α [reference compound]
CXCR4 surface presentation [4]: down-regulation of the respective coreceptors

CCCCCCCCCCCCCC(=O)O[C@@H]1[C@@H](C)[C@@]2(O)[C@@H](C=C(CO)C[C@]3(O)C(=O)C(C)=C[C@@H]23)[C@@H]2C(C)(C)[C@]12OC(C)=O [PMA, phorbol 12-myristate 13-acetate, reference compound]
CD4 surface presentation [5]: down-regulation of CD4

Ac-TEVSEALGGAGLTGGFYEPL [P28]
CXCR4 surface presentation [4]: no relevant effect on HIV-1 receptor presentation | HIV-inhibitory activity (earlier work) [6]: non-HIV-1-inhibitory | competition with E2_340-Fc for gp41 binding [7]: no effect | CCR5 surface presentation [8]: no relevant effect on HIV-1 receptor presentation | CD4 surface presentation [5]: no relevant effect on HIV-1 receptor presentation | binding to HIV-1 Env-expressing cells [9]: the increase of binding was not observed

N35s, C54S variant of the HIV-1 gp120 N-terminus peptide N35 (from UniProt P04578 31-65)
IC50 [1]: 4.6 µM

B1: RANTES: CCR5-ligand (protein, UniProt P13501 24-91, looked up)
C-C motif chemokine 5: SPYSSDTTPCCFAYIARPLPRAHIKEYFYTSGKCSNPAVVFVTRKNRQVCANPEKKWVREYINSLEMS
CCR5 surface presentation [8]: down-regulation of the respective coreceptors
